Columns and labels:
BRD4 [1] = molecular target: T1, BRD4 (Homo sapiens, UniProt O60885); assay: Western blot of BRD4 degradation, wild-type K562 cells; format: cell-based; parameters: an 11 amino acid peptide knock-in tag to a protein-of-interest using CRISPR insertion; endogenous in cells; settings: wild-type K562, 1 μM, 16 h
Procedure: (§1) Western blotting was used to determine the degradation potencies of the covalent BRD4 degraders.
(§2) Cells were washed with PBS and lysed in RIPA lysis buffer (Thermo Fisher Scientific) with Halt Protease Inhibitor Cocktail (Thermo Fisher Scientific) and Benzonase (Sigma-Aldrich) for 20 min on ice. The insoluble fraction was removed by centrifugation, the protein concentration was quantified using a BCA protein assay kit (Thermo Fisher Scientific), and an equal amount of lysate was run on SDS–PAGE 4–12% Bis–Tris Protein Gels (Thermo Fisher Scientific) and then transferred to nitrocellulose membrane with a XCell II Blot Module Wet Tank Transfer System (Thermo Fisher Scientific). Membranes were blocked in Intercept (PBS) Blocking Buffer (LI-COR Biosciences) and incubated with primary antibodies overnight at 4 °C. The membranes were then washed in Tris-buffered saline with Tween-20 (TBS-T), incubated for 1 h with secondary IRDye-conjugated antibodies (LI-COR Biosciences) and washed three times in TBS-T for 5 min before near-infrared western blot detection on an Odyssey Imaging System (LI-COR Biosciences).

BRD4BD2 [2] = molecular target: T2, BRD4BD2 (Homo sapiens, UniProt O60885); assay: BRD4BD2-eGFP and mCherry flow reporter degradation assay, DCAF16 KO K562 cells
Excerpt: In order to investigate the degradation of BRD4 by GNE011 and related analogs, we used a fluorescent stability reporter assay reported previously (Fig. 2A) [17]. This assay involves the co-expression of mCherry with BRD4BD1/2 fused to an enhanced green fluorescent protein (eGFP) tag, and the subsequent fluorescence measurement of BRD4BD1/2-eGFP normalized to mCherry as a readout for BRD4BD1/2 degradation. It allows for a quantitative, rapid, and facile screening of several MGDs, in a dose-and time-dependent manner. […] Thus, the BRD4BD2 stability system was used to test all subsequent GNE011 analogs in wild type and DCAF16−/− cells.
Lentivirus containing sgRNA was transduced to 2 × 10^6 of K562-Cas9 cells at 10% volume ratio by spin infection. FACS sorting was performed to enrich BFP+ cells one week after infection. […] Clonal sgDCAF16-expressing K562-Cas9 cells were isolated after one month of expansion, and the genomic sequences were validated via deep sequencing of PCR amplicons targeting sgDCAF16 cutting sites (MGH CCIB DNA Core Service).
(§5) K562 cells stably expressing degradation reporter were dosed with DMSO or degraders at various times and concentrations using D300e Digital Dispenser (HP). The fluorescent signal was quantified by flow cytometry (LSRFortessa flow cytometer, BD Biosciences) and analyzed using FlowJo (flow cytometry analysis software, BD Biosciences). The geometric mean of the eGFP and mCherry fluorescent signal for round and mCherry-positive cells was calculated. GFP expression was normalized to mCherry signal and drug treatments were compared to DMSO controls.

BRD4 [3] = molecular target: T1, BRD4; assay: Western blot of BRD4 degradation, DCAF16 KO K562 cells; format: cell-based; parameters: an 11 amino acid peptide knock-in tag to a protein-of-interest using CRISPR insertion; endogenous in cells; settings: DCAF16 KO K562, 1 μM, 16 h
Procedure: as §1, §2

glutathione = assay: GSH stability (glutathione reactivity) assay by LC-MS/MS; format: physicochemical; settings: PBS containing 5 mM reduced glutathione; PBS + 5 mM GSH; extrapolated from 240 min assay
Excerpt: Furthermore, we wanted to determine the kinetics of the BRD4BD2-DCAF16 interaction given its covalent nature. […] Additionally, to understand the relationship between ternary complex formation kinetics and warhead reactivity we measured the depletion of the covalent analogs in the presence of glutathione using MS (Table S2). […].

[4] = molecular target: T3, BRD4BD2-DCAF16 ternary complex (Homo sapiens, UniProt O60885+Q9NXF7); assay: DDB1-DCAF16-BRD4BD2 TR-FRET ternary complex formation assay; format: biochemical; settings: for TR-FRETmax (520 nm/490 nm ratio): 6 h degrader incubation; for incubation time of saturation / maximum TR-FRET signal: measured at 1, 2, 4, 6 and 24 h
T3 construct: E3 ligase to bromodomain 2 (BRD4BD2); His6 (N); StrepII (N); Avi (N); made in house; host or cells: BRD4BD2: E. coli (pET100/D-TOPO)
Excerpt: To determine the relationship between covalent warheads and DCAF16 recruitment to BRD4BD2, we used a time-resolved fluorescence energy transfer (TR-FRET) assay to measure induced BRD4BD2-DCAF16 ternary complex formation (Fig. 3A).
Furthermore, we wanted to determine the kinetics of the BRD4BD2-DCAF16 interaction given its covalent nature. […] Additionally, to understand the relationship between ternary complex formation kinetics and warhead reactivity we measured the depletion of the covalent analogs in the presence of glutathione using MS (Table S2). […] Titrations of compounds to induce the DCAF16-BRD4BD complex were carried out by mixing 100 nM biotinylated BRD4BD2, 500 nM BODIPY-FL labeled DDB1ΔB-DCAF16 variants, and 2 nM terbium-coupled streptavidin (Invitrogen) in an assay buffer containing 50 mM HEPES pH 8.0, 200 mM NaCl, 0.1% Pluronic F-68 solution (Sigma), 0.5% bovine serum albumin (BSA) (w/v) and 1 mM TCEP. […] The TR-FRET signal of each data point was extracted by calculating the 520/490 nm ratio.

BRD4BD1 = BRD4BD1 (Homo sapiens, UniProt O60885); assay: BRD4 AlphaScreen competition assay (JQ1-biotin displacement), BRD4BD1; format: binding; settings: read-out: IC50 BRD4BD1
BRD4 [5] = molecular target: T1, BRD4; assay: BRD4-HiBiT assay, DCAF16 KO JURKAT cells; format: cell-based; parameters: an 11 amino acid peptide knock-in tag to a protein-of-interest using CRISPR insertion; endogenous in cells; host or cells: JURKAT, HiBiT-edited (wild type or DCAF16 knockout); settings: 6 h
Procedure: (§3) Thereafter, we sought to characterize the BRD4 cellular degradation potencies in a dose-dependent manner at a shorter time point to minimize secondary effects. This was performed using the bioluminescent HiBiT-BRD4 assay, which consists of an 11 amino acid peptide knock-in tag to a protein-of-interest using CRISPR insertion. A complementary polypeptide (LgBiT) detects and interacts with all HiBiT tagged proteins, thereby reconstituting a luminescent NanoBiT enzyme, that can be quantified by its bioluminescence. WT and DCAF16 KO JURKAT cell lines expressing the BRD4-HiBiT system were generated to quantify dose-dependent BRD4 degradation after 6 h incubation (Fig. 4C).
(§4) After 6 h, the plates were subjected to Nano-Glo HiBiT Lytic detection system (Promega, #N3040) as described in manufacturer's manual. The assays were performed in biological triplicate. DC50 values were determined using a non-linear regression curve fit in GraphPad PRISM 9.5.1.

BRD4 [6] = molecular target: T1, BRD4; assay: BRD4-HiBiT assay, WT JURKAT cells; format: cell-based; parameters: an 11 amino acid peptide knock-in tag to a protein-of-interest using CRISPR insertion; endogenous in cells; host or cells: JURKAT, HiBiT-edited (wild type or DCAF16 knockout); settings: 6 h
Procedure: as §3, §4

BRD4BD2 [7] = molecular target: T2, BRD4BD2; assay: BRD4BD2-eGFP and mCherry flow reporter degradation assay, wild type K562 cells; settings: for increase in degradation potency in comparison to GNE011: BRD4BD2 reporter, 16 h; for Dmax: K562, read-out: maximal degradation (Dmax/16h) of BRD4BD2, K562 cells, 16 h incubation; for DC50: read-out: DC50 of BRD4BD2 degradation
Excerpt: This assay involves the co-expression of mCherry with BRD4BD1/2 fused to an enhanced green fluorescent protein (eGFP) tag, and the subsequent fluorescence measurement of BRD4BD1/2-eGFP normalized to mCherry as a readout for BRD4BD1/2 degradation. It allows for a quantitative, rapid, and facile screening of several MGDs, in a dose-and time-dependent manner. […] Thus, the BRD4BD2 stability system was used to test all subsequent GNE011 analogs in wild type and DCAF16−/− cells.
One day after infection, reporter cells were selected with puromycin at a concentration of 2 μg/mL.
as §5

BRD4 [8] = molecular target: T1, BRD4; assay: Washout experiment, Western blot of BRD4 degradation in K562 cells; format: cell-based; parameters: an 11 amino acid peptide knock-in tag to a protein-of-interest using CRISPR insertion; endogenous in cells; settings: K562, 1 μM; for BRD4 degradation after washout compared to no washout (in words): 4 h treatment, 20 h compound-free vs 24 h no washout
Procedure: This experiment involves cell treatment and incubation with a ‘covalent’ compound, followed by a wash-step where the cells are washed and resuspended in compound-free cell media.
Cells were washed with PBS and lysed in RIPA lysis buffer (Thermo Fisher Scientific) with Halt Protease Inhibitor Cocktail (Thermo Fisher Scientific) and Benzonase (Sigma-Aldrich) for 20 min on ice. […] Membranes were blocked in Intercept (PBS) Blocking Buffer (LI-COR Biosciences) and incubated with primary antibodies overnight at 4 °C. The membranes were then washed in Tris-buffered saline with Tween-20 (TBS-T), incubated for 1 h with secondary IRDye-conjugated antibodies (LI-COR Biosciences) and washed three times in TBS-T for 5 min before near-infrared western blot detection on an Odyssey Imaging System (LI-COR Biosciences).

BRD4BD2 [9] = molecular target: T2, BRD4BD2; assay: BRD4 AlphaScreen competition assay (JQ1-biotin displacement), BRD4BD2; format: binding; settings: read-out: IC50 BRD4BD2
[10] = GSH stability (glutathione reactivity) assay by LC-MS/MS; format: physicochemical; settings: phosphate buffered saline (PBS) without glutathione, extrapolated from 240 min assay

T3 sequence (Q9NXF7 whole entry, other chains not shown): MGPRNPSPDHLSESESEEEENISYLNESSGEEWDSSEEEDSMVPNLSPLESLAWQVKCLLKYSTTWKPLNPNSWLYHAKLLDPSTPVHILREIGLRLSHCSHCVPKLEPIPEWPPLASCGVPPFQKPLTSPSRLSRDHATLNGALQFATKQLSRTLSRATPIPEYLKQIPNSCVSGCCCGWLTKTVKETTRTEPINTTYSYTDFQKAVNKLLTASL

| SMILES | BRD4 degradation by Western blot (in words) (BRD4 [1]) | BRD4BD2 degradation activity in DCAF16 knockout cells (in words) (BRD4BD2 [2]) | BRD4 degradation by Western blot in DCAF16 KO (in words) (BRD4 [3]) | half-life (glutathione) [h] | TR-FRETmax (520 nm/490 nm ratio) [4] | incubation time of saturation / maximum TR-FRET signal [4] [h] | IC50 (BRD4BD1) [nM] | BRD4 degradation in DCAF16 KO (in words) (BRD4 [5]) | BRD4 degradation (in words) (BRD4 [6]) | BRD4 degradation (BRD4 [6]; at <100 nM) [%] | increase in degradation potency in comparison to GNE011 (BRD4BD2 [7]; K562 cells) | Dmax (BRD4BD2 [7]) [%] | DC50 (BRD4BD2 [7]; K562 cells, 16 h incubation) [nM] | BRD4 degradation after washout compared to no washout (in words) (BRD4 [8]) | IC50 (BRD4BD2 [9]) [nM] | BRD4 degradation (BRD4 [6]) [%] | BRD4BD2-DCAF16 ternary complex formation / DCAF16 recruitment (in words) ([4]; time-dependent TR-FRET) | half-life [10] [h] | DCAF16 dependent BRD4BD2 degradation (in words) (BRD4BD2 [7]; K562 cells, 16 h incubation) | BRD4 degradation without washout (in words) (BRD4 [8]; 24 h no washout) |
| --- | --- | --- | --- | --- | --- | --- | --- | --- | --- | --- | --- | --- | --- | --- | --- | --- | --- | --- | --- | --- |
| C=CC(=O)Nc1ccc(C2=N[C@@H](CC(=O)OC(C)(C)C)c3nnc(C)n3-c3sc(C)c(C)c32)cc1 [MMH1, tert-butyl (S)-2-(4-(4-acrylamidophenyl)-2,3,9-trimethyl-6H-thieno[3,2-f][1,2,4]triazolo[4,3-a][1,4]diazepin-6-yl)acetate] | nearly complete BRD4 degradation | almost entirely ablated | completely rescued by DCAF16 KO | 9.53 | 1.78 | 24 | 17.7 | completely rescued by DCAF16 KO | noticeable BRD4 degradation | > 90 | ~ 3333 fold | 95 | 0.3 | no or minimal difference | 15.5 |  |  |  |  |  |
| C=CS(=O)(=O)Nc1ccc(C2=N[C@@H](CC(=O)OC(C)(C)C)c3nnc(C)n3-c3sc(C)c(C)c32)cc1 [MMH2, tert-butyl (S)-2-(2,3,9-trimethyl-4-(4-(vinylsulfonamido)phenyl)-6H-thieno[3,2-f][1,2,4]triazolo[4,3-a][1,4]diazepin-6-yl)acetate] | nearly complete BRD4 degradation | almost entirely ablated | completely rescued by DCAF16 KO | > 12.5 | 3.75 | 1 | 48.6 | completely rescued by DCAF16 KO | noticeable BRD4 degradation | > 90 | ~1000 fold | 95 | 1 | no or minimal difference |  |  |  |  |  |  |
| Cc1sc2c(c1C)C(c1ccc(NC(=O)CCl)cc1)=N[C@@H](CC(=O)OC(C)(C)C)c1nnc(C)n1-2 [MMH249, tert-butyl (S)-2-(4-(4-(2-chloroacetamido)phenyl)-2,3,9-trimethyl-6H-thieno[3,2-f][1,2,4]triazolo[4,3-a][1,4]diazepin-6-yl)acetate] | moderate degradation | almost entirely ablated |  | 8.85 | 0.77 | 24 | 3.98 | completely rescued by DCAF16 KO | noticeable BRD4 degradation |  |  | 56 | 8 | no or minimal difference | 2.59 | < 60 |  |  |  |  |
| Cc1sc2c(c1C)C(c1ccc(/C=C/C(N)=O)cc1)=N[C@@H](CC(=O)OC(C)(C)C)c1nnc(C)n1-2 [MMH271, tert-butyl (S,E)-2-(4-(4-(3-amino-3-oxoprop-1-en-1-yl)phenyl)-2,3,9-trimethyl-6H-thieno[3,2-f][1,2,4]triazolo[4,3-a][1,4]diazepin-6-yl)acetate] |  |  |  | > 12.5 | 0.14 |  | 8.08 |  |  |  |  |  |  |  | 7.58 |  | no significant DCAF16 recruitment | > 12.5 | almost no DCAF16 dependent BRD4BD2 degradation | showed BRD4 degradation in 24 h no washout experiments |
